Experimental findings from patent US20070049578A1, “Cinnamamide compounds as metabotropic glutamate receptor antagonists” (AstraZeneca AB, priority 2005, published 2007) are described below.

Each structure is given as a SMILES string.

The term IC50 denotes the concentration that gives 50% inhibition. Lower therefore signals greater potency in that assay.

The target of the experiment is T1, human mGluR5d (Homo sapiens, UniProt P41594).
T1 construct: expressed in transfected cells; host or cells: GHEK (human embryonic kidney cells expressing glutamate transporter) for the IP3 assay
T1 sequence (P41594 21-942 isoform P41594-3 limits assumed): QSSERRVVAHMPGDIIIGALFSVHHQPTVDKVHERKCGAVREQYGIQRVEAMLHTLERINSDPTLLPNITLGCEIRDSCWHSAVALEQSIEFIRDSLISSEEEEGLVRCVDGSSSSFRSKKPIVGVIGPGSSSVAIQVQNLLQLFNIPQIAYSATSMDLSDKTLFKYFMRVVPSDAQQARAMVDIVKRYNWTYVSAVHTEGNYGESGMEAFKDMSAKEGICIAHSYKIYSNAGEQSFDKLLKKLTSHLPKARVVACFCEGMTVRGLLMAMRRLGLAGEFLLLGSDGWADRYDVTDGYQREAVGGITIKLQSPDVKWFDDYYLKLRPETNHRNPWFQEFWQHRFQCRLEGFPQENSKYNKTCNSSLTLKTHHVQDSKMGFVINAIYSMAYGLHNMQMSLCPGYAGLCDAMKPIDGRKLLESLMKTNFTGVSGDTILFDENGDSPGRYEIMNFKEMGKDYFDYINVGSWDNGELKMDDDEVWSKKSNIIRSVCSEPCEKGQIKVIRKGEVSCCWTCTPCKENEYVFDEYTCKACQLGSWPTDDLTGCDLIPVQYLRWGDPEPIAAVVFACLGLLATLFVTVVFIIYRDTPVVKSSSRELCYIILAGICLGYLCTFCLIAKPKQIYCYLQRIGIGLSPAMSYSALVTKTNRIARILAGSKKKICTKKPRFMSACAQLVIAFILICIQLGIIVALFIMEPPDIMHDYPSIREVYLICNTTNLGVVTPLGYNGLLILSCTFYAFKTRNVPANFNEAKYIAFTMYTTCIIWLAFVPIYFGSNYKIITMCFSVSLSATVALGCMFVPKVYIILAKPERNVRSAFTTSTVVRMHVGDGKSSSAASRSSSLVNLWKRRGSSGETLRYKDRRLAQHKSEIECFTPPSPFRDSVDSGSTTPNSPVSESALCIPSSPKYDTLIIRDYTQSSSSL
The experiment can be described thus: Functional assessment of mGluR5 antagonism in cell lines expressing mGluR5d (FLIPR [Ca2+]i mobilization and/or IP3 turnover; not stated which assay gave the values). The format is cell-based. The note with it: assays described herein (FLIPR / IP3), cells expressing human mGluR5d. From the text: The pharmacological properties of the compounds of the invention can be analyzed using standard assays for functional activity. Examples of glutamate receptor assays are well known in the art as described in for example Aramori et al., Neuron 8:757 (1992), Tanabe et al., Neuron 8:169 (1992), Miller et al., J. Neuroscience 15: 6103 (1995), Balazs, et al., J. Neurochemistry 69:151 (1997). The methodology described in these publications is incorporated herein by reference. Conveniently, the compounds of the invention can be studied by means of an assay that measures the mobilization of intracellular calcium, [Ca^2+]i in cells expressing mGluR5.
Intracellular calcium mobilization was measured by detecting changes in fluorescence of cells loaded with the fluorescent indicator fluo-3. Fluorescent signals were measured using the FLIPR system (Molecular Devices). A two addition experiment was used that could detect compounds that either activate or antagonize the receptor.
For FLIPR analysis, cells expressing human mGluR5d were seeded on collagen coated clear bottom 96-well plates with black sides and analysis of [Ca^2+]i mobilization was done 24 hours after seeding.
FLIPR experiments were done using a laser setting of 0.800 W and a 0.4 second CCD camera shutter speed. Each FLIPR experiment was initiated with 160 μL of buffer present in each well of the cell plate. After each addition of the compound, the fluorescence signal was sampled 50 times at 1 second intervals followed by 3 samples at 5 second intervals. Responses were measured as the peak height of the response within the sample period.
EC50 and IC50 determinations were made from data obtained from 8-point concentration response curves (CRC) performed in duplicate. Agonist CRC were generated by scaling all responses to the maximal response observed for the plate. Antagonist block of the agonist challenge was normalized to the average response of the agonist challenge in 14 control wells on the same plate.
We have validated a secondary functional assay for mGluR5d based on Inositol Phosphate (IP3) turnover. IP3 accumulation is measured as an index of receptor mediated phospholipase C turnover. GHEK cells stably expressing the human mGluR5d receptors were incubated with [3H] myo-inositol overnight, washed three times in HEPES buffered saline and pre-incubated for 10 minutes with 10 mM LiCl. Compounds (agonists) were added and incubated for 30 minutes at 37° C. Antagonist activity was determined by pre-incubating test compounds for 15 minutes, then incubating in the presence of glutamate (80 μM) or DHPG (30 μM) for 30 minutes. Reactions were terminated by the addition of perchloric acid (5%). Samples were collected and neutralized, and inositol phosphates were separated using Gravity-Fed Ion-Exchange Columns.
Functional Assessment of mGluR5 Antagonism in Cell Lines Expressing mGluR5D
The properties of the compounds of the invention can be analyzed using standard assays for pharmacological activity. Examples of glutamate receptor assays are well known in the art as described in for example Aramori et al., Neuron 8:757 (1992), Tanabe et al., Neuron 8:169 (1992), Miller et al., J. Neuroscience 15: 6103 (1995), Balazs, et al., J. Neurochemistry 69:151 (1997). The methodology described in these publications is incorporated herein by reference. […]
In turn, `CCOC(=O)N1CCN(C(=O)/C=C/c2cccc(Cl)c2)CC1` [Example 11.4, ethyl 4-[(2E)-3-(3-chloro-phenyl)prop-2-enoyl]piperazine-1-carboxylate] had an IC50 of 1110 nM.
For `O=C(/C=C/c1cccc(Cl)c1)N1CCN(c2ncccc2[N+](=O)[O-])CC1` [Example 11.6, 1-[(2E)-3-(3-chlorophenyl)prop-2-enoyl]-4-(3-nitro-pyridin-2-yl)piperazine] the value was 10 nM; for `C[C@@H]1CN(c2ncccc2C#N)CCN1C(=O)/C=C/c1cccc(Br)c1` [Example 11.22, 2-{(3R)-4-[(2E)-3-(3-bromo-phenyl)prop-2-enoyl]-3-methylpiperazin-1-yl}nicotinonitrile], 33 nM.
For `C[C@@H]1CN(c2ncc(F)cc2C#N)CCN1C(=O)/C=C/c1cccc(OC(F)F)c1` [Example 11.28, 2-((3R)-4-{(2E)-3-[3-(difluoromethoxy)phenyl]prop-2-enoyl}-3-methylpiperazin-1-yl)-5-fluoronicotinonitrile] the value was 293 nM; for `COCC1CN(c2nccnc2C#N)CCN1C(=O)/C=C/c1cccc(Cl)c1` (centres unmarked) [Example 29.1, 3-[4-[(2E)-3-(3-chlorophenyl)prop-2-enoyl]-3-(methoxymethyl)piperazin-1-yl]pyrazine-2-carbonitrile], 384 nM.
